Common to all, as to assay type: cell-based
Experiment [1] concerns the target T1, wild-type CysLT1R (Homo sapiens, UniProt Q9Y271).
T1 construct: expressed in transfected cells; host or cells: HEK293 (ATCC CRL-1573), transient transfection with Lipofectamine 3000
T1 sequence (Q9Y271 1-337): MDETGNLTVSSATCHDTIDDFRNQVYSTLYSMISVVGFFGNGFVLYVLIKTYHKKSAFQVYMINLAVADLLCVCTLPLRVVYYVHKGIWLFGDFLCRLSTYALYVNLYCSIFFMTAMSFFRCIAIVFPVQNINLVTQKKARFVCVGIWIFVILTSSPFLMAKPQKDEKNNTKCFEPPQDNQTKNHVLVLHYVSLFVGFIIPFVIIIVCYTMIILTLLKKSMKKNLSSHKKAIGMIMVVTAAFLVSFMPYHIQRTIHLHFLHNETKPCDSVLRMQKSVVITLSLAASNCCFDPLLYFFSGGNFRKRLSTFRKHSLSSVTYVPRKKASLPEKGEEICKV
Kind of experiment: IP1 production assay, antagonist mode, co-stimulation with EC80 LTD4. Particulars: for Emax: HEK293, read-out: CysLT1R (LTD4) % Max Inhibition ± SEM; for extent of inhibition of LTD4-mediated response at CysLT1R (in words): antagonist mode, 1.5 to 100 µM; for inhibition at 30 µM: HEK293, compound 30 µM, LTD4 at EC80, HEK293, wild-type CysLT1R, read-out: inhibition of LTD4-induced IP1 production, single-concentration screen.

The target of experiment [2] is T2, wild-type CysLT2R (Homo sapiens, UniProt Q9NS75).
T2 construct: expressed in transfected cells; host or cells: HEK293 (ATCC CRL-1573), transient transfection with Lipofectamine 3000
T2 sequence (Q9NS75 1-346): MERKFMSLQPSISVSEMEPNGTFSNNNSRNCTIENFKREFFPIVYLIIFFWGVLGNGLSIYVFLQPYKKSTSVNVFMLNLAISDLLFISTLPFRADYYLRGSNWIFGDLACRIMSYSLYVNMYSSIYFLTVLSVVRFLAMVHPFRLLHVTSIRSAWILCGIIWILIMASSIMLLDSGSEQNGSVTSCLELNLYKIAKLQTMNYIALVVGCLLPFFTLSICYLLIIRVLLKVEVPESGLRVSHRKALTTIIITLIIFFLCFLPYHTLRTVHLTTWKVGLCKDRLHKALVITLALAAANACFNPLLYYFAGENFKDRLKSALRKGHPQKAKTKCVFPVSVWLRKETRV
Described as above. Particulars: for inhibition at 30 µM: HEK293, compound 30 µM, LTD4 at EC80, HEK293, wild-type CysLT2R, read-out: inhibition of LTD4-induced IP1 production, single-concentration screen; for Emax: HEK293, read-out: CysLT2R (LTD4) % Max Inhibition ± SEM.

In experiment [3] the target is T1, wild-type CysLT1R. Kind of experiment: IP1 production assay, antagonist mode, LTC4 (EC80) as agonist. The settings on record: HEK293, wild-type CysLT1R, LTC4 at EC80; for Ki: functional Ki by Cheng-Prusoff, read-out: CysLT1R (LTC4) Ki ± SEM. As to the method:
(§1) All 139 selected compounds were screened in a functional assay measuring IP1 production as an indicator of Gαq activation. For this assay, we used the Cisbio IP-One kit as previously described. Human Embryonic Kidney (HEK) 293 cells (ATCC CRL-1573) between passages 5 and 25 were seeded onto poly-L-Lysine-coated 384-well plates at 20,000 cells/well and transfected with 30 ng of cDNA coding for the wild-type CysLT1R or CysLT2R receptors or for the CysLT2R mutant L129Q, using the Lipofectamine 3000 (Thermo Fisher Scientific) transfection agent. At 48 h post-transfection, the media was removed and the cells were washed with fresh Hank’s Balanced Salt Solution (HBSS). […] First, all 139 selected compounds were screened at a 30 µM concentration in both the agonist and antagonist mode in cells transiently expressing the wildtype CysLT1R or CysLT2R receptors. […] For CysLT1R, the compounds retained were BRI-12328, BRI-12334, BRI-12359, BRI-12410, BRI-12411, BRI-12417, BRI-12424, BRI-12435, BRI-12450, and BRI-12458; for CysLT2R, these were BRI-12328, BRI-12334, BRI-12359, BRI-12401, BRI-12402, BRI-12405, BRI-12410, BRI-413, BRI-12417, BRI-12424, BRI-426, BRI-427, BRI-450, BRI-453, BRI-454, BRI-458, and BRI-466. These hits were again tested in the antagonist mode with compound concentrations ranging from 1.56 µM to 100 µM, at 2-fold concentration intervals. The three best hits (BRI-12359, BRI-417, and BRI-424) were also tested using the LTC4 ligand (EC80 concentration) and in cells transiently expressing the constitutively active CysLT2R mutant L129Q. […] After compound stimulation, the cells were incubated for 1 h at 37 °C and stimulated with IP1-D2 and Ab-Crypt reagents in Lysis Buffer. The cells were then incubated at room temperature for an additional hour. The plate was read on a Tecan Genios Pro plate reader using a HTRF (homogeneous time-resolved fluorescence) filter set (λex = 320 nm, λem = 620 and 655 nm). Normalized data were plotted using either the three-parameter or four-parameter EC50/IC50 fits of GraphPad Prism 8 (San Diego). […] Data represent the means ± SEM of at least three independent experiments performed in quadruplicate. For the additional antagonist experiments performed with BRI-12359, we performed Schild analysis in order to determine pA2 values.

The target of experiment [4] is T2, wild-type CysLT2R. The description is as above. The settings on record: HEK293, wild-type CysLT2R; LTC4 at EC80. As to the method:
as §1

In a further experiment the target is T3, CysLT2R-WT (Homo sapiens, UniProt Q9NS75).
T3 construct: expressed in transfected cells; host or cells: HEK293 (ATCC CRL-1573), transient transfection with Lipofectamine 3000
T3 sequence (Q9NS75 1-346): T2 sequence (Q9NS75 1-346)
Nature of the experiment: IP1 production assay, Schild analysis: fixed BRI-12359 then range of LTD4. As to the method:
(§2) For this assay, we used the Cisbio IP-One kit as previously described. […] At 48 h post-transfection, the media was removed and the cells were washed with fresh Hank’s Balanced Salt Solution (HBSS). […] After compound stimulation, the cells were incubated for 1 h at 37 °C and stimulated with IP1-D2 and Ab-Crypt reagents in Lysis Buffer. The cells were then incubated at room temperature for an additional hour. […] Normalized data were plotted using either the three-parameter or four-parameter EC50/IC50 fits of GraphPad Prism 8 (San Diego). […] Data represent the means ± SEM of at least three independent experiments performed in quadruplicate.

The next experiment concerns the target T4, CysLT1R-WT (Homo sapiens, UniProt Q9Y271).
T4 construct: expressed in transfected cells; host or cells: HEK293 (ATCC CRL-1573), transient transfection with Lipofectamine 3000
T4 sequence (Q9Y271 1-337): T1 sequence (Q9Y271 1-337)
The description is as above. As to the method: as §2

The next experiment addresses T5, CysLT2R mutant L129Q (Homo sapiens, UniProt Q9NS75, L129Q).
T5 construct: expressed in transfected cells; host or cells: HEK293 (ATCC CRL-1573), transient transfection with Lipofectamine 3000
T5 sequence (Q9NS75 1-346 L129Q): T2 sequence (Q9NS75 1-346) with L129Q
Nature of the experiment: IP1 production assay, constitutively active mutant, direct compound stimulation (inverse agonism). The settings on record: for % max inhibition ± SEM of constitutive IP1 accumulation / IC50: HEK293 transiently expressing CysLT2R L129Q; for % max inhibition ± SEM of constitutive IP1 accumulation: WT non-stimulated = 0%, L129Q non-stimulated = 100%; for IC50: compound 1.6 to 100 μM, no agonist, read-out: IC50 ± SEM, inhibition of constitutive IP1 accumulation. As for the experimental part:
as §1
This effect would be particularly interesting in the case of the L129Q CysLT2R mutant identified in uveal melanoma patients. We tested these three compounds in the functional IP1 assay using cells transiently expressing the L129Q CysLT2R mutant, directly stimulated with a range of compound concentrations (1.6 to 100 μM).

The record followed here is publication PMC7761830, “Structure-Based Virtual Screening of Ultra-Large Library Yields Potent Antagonists for a Lipid GPCR” (Biomolecules, 2020).

Numbering of substitutions follows the chain as printed. “And” between values parts separate entries of the source, which are not always exact repeats. Identical values can stand only once. Where only a bound is given, the exact number is not on record here.

For the compound `NC(=O)c1ccsc1NC(=O)CSc1nnc(-c2c[nH]c3ccccc23)o1` [BRI-12359], at wild-type CysLT1R [1], the Ki (in general, a measure of affinity in units of concentration, obtained from inhibition or displacement) worked out at 1030 ± 280 nM; the remaining activity at 30 µM came out at 5.59%; the Emax stood at 121 ± 13%; the “extent of inhibition of LTD4-mediated response at CysLT1R (in words)” value (“extent of inhibition … at CysLT1R (in words)” for short) is given as “completely inhibit”. Further, at wild-type CysLT2R [2], the Ki was 6460 ± 430 nM, the remaining activity at 30 µM amounted to 36.2%, the inhibition at 30 µM was no less than 50% and the Emax came out at 92 ± 15%. For the same compound, on wild-type CysLT2R [2] (antagonist mode, 1.5 to 100 µM), the “extent of inhibition of LTD4-induced response at CysLT2R (in words)” value was “fully abolished”. Further, on wild-type CysLT1R [3], the “CysLT1R (LTC4) % Max Inhibition ± SEM” value is 105 ± 7%; the Ki was 700 nM and 720 nM. At wild-type CysLT2R [4], the “CysLT2R (LTC4) % Max Inhibition ± SEM” value came to 65 ± 11%. The Kb at CysLT2R-WT amounted to 105000 ± 37000 nM. Further, on CysLT2R-WT (Schild analysis, CysLT2R-WT, LTD4), the “pA2 ± SEM” value is 4.0 ± 0.2 −log. The compound further came in with a Kb on CysLT1R-WT of 340 ± 90 nM. The “pA2 ± SEM” value on CysLT1R-WT (Schild analysis, CysLT1R-WT, LTD4) is reported as 6.5 ± 0.1 −log. The “inhibition of IP1 production by CysLT2R L129Q mutant (in words)” value against CysLT2R mutant L129Q (100 μM compound) was “practically full inhibition”. Also, at CysLT2R mutant L129Q, the “% max inhibition ± SEM of constitutive IP1 accumulation” value worked out at 82 ± 11%; the IC50 (usually the midpoint of a concentration-inhibition curve) was 30000 to 40000 nM and 32000 nM.
With `NC(=O)c1ccccc1Oc1ccc(NC(=O)c2ccc3nc(C(F)(F)F)cn3c2)cc1` [BRI-12417], on wild-type CysLT1R [1], the Ki worked out at 3100 ± 630 nM, the remaining activity at 30 µM was 54.7%, the inhibition at 30 µM was no less than 50% and the Emax came to 100 ± 17%. The “extent of inhibition … at CysLT1R (in words)” value on wild-type CysLT1R [1] is “completely inhibit”. In addition, at wild-type CysLT2R [2], the remaining activity at 30 µM was determined as 74.4%, the inhibition at 30 µM was less than 50% and the Emax is 54 ± 6%. Also, at wild-type CysLT1R [3], the “CysLT1R (LTC4) % Max Inhibition ± SEM” value amounted to 83 ± 14%; the Ki is 700 nM and 680 nM. For the same compound, the “CysLT2R (LTC4) % Max Inhibition ± SEM” value at wild-type CysLT2R [4] is 32 ± 5%. Besides, on CysLT2R mutant L129Q, the “% max inhibition ± SEM of constitutive IP1 accumulation” value is 59 ± 12%; the IC50 was 30000 to 40000 nM and 38000 nM.
For `Cn1c(-c2ccc(NC(=O)c3cccc(OCC(=O)O)c3)cc2)nc2ccccc21` [BRI-12424], on wild-type CysLT1R [1], the affinity, expressed as Ki, was 220 ± 30 nM; the remaining activity at 30 µM turned out to be 50.8%; the inhibition at 30 µM was no less than 50%; the Emax was 71 ± 19%. Further, the “extent of inhibition … at CysLT1R (in words)” value on wild-type CysLT1R [1] is “partial antagonism”. On wild-type CysLT2R [2], the remaining activity at 30 µM was found to be 79.7%, the inhibition at 30 µM is less than 50% and the Emax is 7 ± 5%. Moreover, on wild-type CysLT1R [3], the “CysLT1R (LTC4) % Max Inhibition ± SEM” value is 52 ± 9% and the Ki was 180 ± 30 nM. For the same compound, the “CysLT2R (LTC4) % Max Inhibition ± SEM” value on wild-type CysLT2R [4] came to 9 ± 5%. On CysLT2R mutant L129Q, the “% max inhibition ± SEM of constitutive IP1 accumulation” value is 21 ± 10%.
